Assay results as given in patent US20070287703A1, “Fused Pyrimidones Useful in the Treatment and the Prevention of Cancer” (AstraZeneca AB, priority 2004, published 2007).

Biological target: T1, recombinant HsEg5 motor domain (amino acids 1-369-8His) (Homo sapiens, UniProt P52732)
T1 construct: recombinant HsEg5 motor domain (amino acids 1-369-8His); 8His (C)
T1 sequence (P52732 1-369): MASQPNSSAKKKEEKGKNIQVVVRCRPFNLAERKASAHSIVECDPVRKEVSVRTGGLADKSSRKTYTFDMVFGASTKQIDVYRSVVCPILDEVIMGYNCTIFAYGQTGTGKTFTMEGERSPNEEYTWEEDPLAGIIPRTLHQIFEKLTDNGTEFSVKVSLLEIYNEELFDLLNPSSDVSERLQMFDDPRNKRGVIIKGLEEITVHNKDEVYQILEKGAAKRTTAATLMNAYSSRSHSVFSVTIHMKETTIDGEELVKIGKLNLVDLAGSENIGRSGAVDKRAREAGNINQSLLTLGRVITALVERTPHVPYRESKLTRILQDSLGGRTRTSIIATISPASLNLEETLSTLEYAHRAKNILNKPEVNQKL
Experiment: Malachite Green Assay of Eg5 motor ATPase activity
Assay type: biochemical
Settings: 6 nM enzyme, 300 μM ATP, 908 nM polymerized tubulin, 20 min pre-incubation, 20 min reaction at room temperature
Description: Enzymatic activity of the Eg5 motor and effects of inhibitors was measured using a malachite green assay, which measures phosphate liberated from ATP, and has been used previously to measure the activity of kinesin motors (Hackney D D, and Jiang W, Assays for kinesin microtubule-stimulated ATPase activity; Methods in Molecular Biology vol 164:65-71 (2001)). Enzyme was recombinant HsEg5 motor domain (amino acids 1-369-8His) and was added at a final concentration of 6 nM to 100 μl reactions. […]
5 μl of compound diluted in 12% DMSO was added to the wells of 96 well plates. […] The reactions were then quenched by the addition of 150 μl malachite green/ammonium molybdate reagent, and absorbance read at 650 nanometers exactly 5 min after quench using a Spectramax Plus plate reader (Molecular Devices). Data was graphed and IC50s calculated using ExCel Fit (Microsoft).

IC50: 331 nM
Compound: CCC(c1nc2n(c(=O)c1Cc1ccccc1)CCCS2)N(CCCN)C(=O)c1ccc(OC)cc1 (stereo not shown) [Example 4, 3,4-Dihydro-6-oxo-7-benzyl-8-{1-[N-(4-methoxybenzoyl)-N-(3-aminopropyl)amino]propyl}-2H,6H-pyrimido[2,1-b][1,3]thiazine]
